From patent US20070142396A1, “Treatment of pain with 1-[3-[4-(3-chlorophenyl)-1-piperazinyl]propyl]-5-methoxy-3,4-dihydro-2(1H)-quinolone or salt thereof” (Vela Pharmaceuticals, Inc., priority 2005, published 2007)

Tested on: rats with L5 spinal nerve ligation (SNL model)
Experiment: Spinal nerve ligation (L5) neuropathic pain model, mechanical threshold with von Frey filaments (Example 4)
Type: in vivo, rat
Details: 100 mg/kg oral
Description: A total of 18 Sprague-Dawley (CD sub-strain) young adult (weight: 150-175 g) male rats were purchased from Harlan Sprague Dawley Company (Indianapolis, Ind.), Alabama colony. The rats were kept three per cage and had free access to food and water. Animals were kept in a room with a reversed light-dark cycle (light: 8:00 PM-8:00 AM) for 1 week before experimental manipulations. Ten rats were allocated to the present study. Eight rats were allocated to the study of Example 5, below.
The spinal nerve ligation (SNL) model of neuropathic pain was produced in all rats as described by Kim and Chung (Pain, 50, 355-363, 1992). Briefly, under gaseous anesthesia using halothane (3% for induction and 1.5% for maintenance) in oxygen, the left L5 spinal nerve was exposed by removing the paraspinal muscles and the transverse process of the L6 vertebra. The very proximal portion of the L5 spinal nerve was tightly ligated with 6-0 silk suture. The wounds were closed and anesthesia was discontinued. Rats were kept on a heated blanket until they had completely recovered from anesthesia.
OPC-14523 was dispersed in 0.5% tragacanth in distilled water at 20 mg/ml. It was administered as a oral injection in a dose of 100 mg/kg body weight. Gabapentin was prepared at 10 mg/ml in saline and was administered at 50 mg/kg body weight i.p. Gabapentin is a drug that was originally developed as an anticonvulsant but is now widely used as an analgesic for neuropathic pain (Abdi et al., Anesthesia & Analgesia 87:1360-1366 (1998)).
Ten rats were utilized in a Latin-square-design study comparing the activity of OPC-14523 and other compounds against neuropathic pain. Behavioral tests were conducted twice (1 day and 1 hour) before, as well as 1 and 4 days after, the neuropathic surgery. […] The ten rats were randomly divided into five groups of two rats each. […]
This procedure was repeated five times. […] The result was that all ten animals received each of the indicated five compounds in random order and then had mechanical thresholds determined at the indicated times.
Behavioral tests were conducted in a non-blind fashion. The foot withdrawal threshold to mechanical stimuli applied to the paw (mechanical threshold) was measured, as an indicator of mechanical sensitivity of the affected paw. The foot withdrawal threshold was measured using von Frey filaments. […] The mechanical thresholds were measured by using the “up-and-down” method (Chaplan et al., J. Neurosci. Methods 53(1):55-63, 1994), following the procedures described in previous studies (Park et al., Pain 87(2):171-179, 2000; Xie et al., J. Pain 2(5):270-278, 2001; Baik et al., J. Pain 4:212-221, 2003). […]

COc1cccc2c1CCC(=O)N2CCCN1CCN(c2cccc(Cl)c2)CC1 [OPC-14523, 1-[3-[4-(3-chlorophenyl)-1-piperazinyl]propyl]-5-methoxy-3,4-dihydro-2(1H)-quinolone]
level of mechanical threshold reached relative to level prior to ligation: comparable to the level observed prior to ligation | effect on mechanical threshold of the lesioned paw for foot withdrawals (0.5-6 hours): significantly increased
